{"source": "patent US20100183524A1", "about": "“ANTIOXIDANT COMPOSITIONS FOR SOFT ORAL TISSUE AND METHODS OF FORMULATION AND USE THEREOF” (Perio Sciences, LLC, priority 2008, published 2010)", "key": {"[1]": {"test_system": "Rac-GTP in HGF cells", "test": "Rac-GTP immunofluorescence in scratch wound assay, nicotine-exposed HGF", "format": "cell-based, human", "method": "(§1) Both cell types tested (HGF and HPDL) were plated at 5×10^4 cells/well in a Lab-Tek II chamber glass slide with cover (Nalge Nunc International, Rochester, N.Y.). Approximately 400 μl of cell medium suspension was added to each well. The cells were grown overnight until confluent. Cells were pretreated with nicotine (10 mM, 8 mM and 6 mM) for two hours and then treated with antioxidants (resveratrol, trans=ferulic acid, tetrahydrocurcuminoids CG™, or phloretin) in double or triple combinations at 0.4% w/v (10^−5M). Two hours later, a scratch wound assay was performed using a sterile 10 μl pipet tip.\n(§2) The cells were fixed with 4% paraformaldehyde for 30 minutes and then washed with sterile phosphate buffered saline (PBS) three times. […] The secondary antibody (1:500 Alexa Fluor® 488 goat anti-mouse IgG (H+L) (Molecular Probes, Eugene, Oreg.) was incubated for two hours at room temperature. The stained cells were washed with PBS three times. The Lab-Tek II wells were removed and the cells were cover-slipped with slowfade mounting medium. Analysis of the levels of Rac-GTP at the leading edge of the wound were determined using confocal microscopy. All treatments were recorded with the same settings on a Leica SP2 microscope. All images were taken from projected z stacks of the immunolabeled cells. Intensity of Rac-GTP immunofluorescence was determined using Nikon Elements software. […]"}, "[2]": {"test_system": "Rac-GTP in HPDL cells", "test": "Rac-GTP immunofluorescence in scratch wound assay, nicotine-exposed HPDL", "format": "cell-based, human", "conditions": "nicotine 6 mM, 8 mM, 10 mM", "method": "as §1, §2"}, "[3]": {"test_system": "human gingival fibroblast (HGF) cells", "conditions": "6, 8 or 10 mM nicotine, two hours", "protocol": "Cells were then treated with a solution containing either the three antioxidants described above, or a 1:1 ratio of only two antioxidants, or only a single antioxidant. Cell migration was recorded using BioStation Live Cell Imaging (Nikon Instruments, Melvile, N.Y.) every hour for ten hours, and data presented here is for 1 hour, 5 hours, or 10 hours."}, "[4]": {"test_system": "human gingival fibroblasts (HGF)", "protocol": "Human gingival tissues from healthy nonsmokers were collected with institutional review board approval and tissues were cultured in high glucose Dulbecco's modified eagles medium (DMEM), 10% FBS, and 1% antimycotic/antiobiotic. Tissues were incubated at 37° C. in a humidified gas mixture (5% CO2 and 95% air) and medium was changed every 24 hours. Human gingival fibroblasts (HGF) grew from the tissue after a week. Cells were passaged using 0.25% trypsin solutions and plated in new tissue culture flasks when confluent. Passages 3-12 were used in all of the experiments.\nIn this experiment, 5×10^3 cells in 100 μL of culture medium were seeded into each well of a 96-well plate. […]\n(§3) Cell viability and survival were assessed by MTS colorimetric assay (3-[4,5-dimethylthiazol-2-yl]-5-[3-carboxymethoxyphenyl]-2-[4-sulfophenyl]-2H-tetrazolium) (Promega Corp., Madison, Wis.). This quantitative assay detects living but not dead cells. […] The absorbance at 490 nm was measured using a SpectraMax microplate spectrophotometer (Molecular Devices, Sunnyvale, Calif.). […]\nPercent viable cells were expressed as; A/B, where A is absorbance at 490 nm with antioxidant compounds (RFT, PFR, PFT) and H2O2 or Ethanol pre-treatments; B absorbance at 490 nm with 0.1% FBS (control). […]"}, "[5]": {"test_system": "Human periodontal ligament fibroblasts (HPDL)", "protocol": "Culture conditions as described in HGF were similarly employed in the HPDL cells. In this experiment, 5×10^3 cells in 100 μL of culture medium were seeded into each well of a 96-well plate. […] Bioactive antioxidant mixtures tested included: resveratrol, ferulic acid and tetrahydrocurcuminoids (RFT), phloretin, ferulic acid and resveratrol (PFR), phloretin, ferulic acid and tetrahydrocurcuminoids (PFT).\nCells were washed with PBS and treated with antioxidant mixtures (RFT, PFR, PFT) in 0.1% FBS medium (DMEM and 1% antimycotic/antiobiotic) for 24 hours.\nDifferent ethanol concentrations (15%, 10% and 5%) were used for dose response experiments for 30 or 60 minutes.\nAfter pretreatment with ethanol or H2O2, the cells were rinsed and treated with 10^−5M (0.4% wt/v) antioxidant mixture (RFT, PFR, PFT) for 24 hrs.\nas §3\na. Percent viable cells were expressed as; A/B, where A is absorbance at 490 nm with antioxidant compounds (RFT, PFR, PFT) and H2O2 or Ethanol pre-treatments; B absorbance at 490 nm with 0.1% FBS (control). […]"}}, "data": [{"molecule": "COc1cc(/C=C/C(=O)O)ccc1O", "note": "[trans-ferulic acid]", "values": [{"measurement": "increase of Rac-GTP expression over nicotine treated cells (6 mM Nic), mean pixel intensity", "setting": "[1]; 6 mM nicotine two hours, then antioxidants 10^−5 M, leading edge of the wound", "value": 35, "unit": "%"}]}, {"molecule": "CN1CCCC1c1cccnc1", "note": "(centres unmarked) [nicotine]", "values": [{"measurement": "effect of nicotine on Rac-GTP expression", "setting": "[1]; nicotine 6 mM, 8 mM, 10 mM", "value": "dose dependent decrease"}, {"measurement": "effect of nicotine on Rac-GTP expression", "setting": "[2]", "value": "dose dependent decrease"}, {"measurement": "effect of nicotine on cell migration", "setting": "[3]", "value": "deleterious effect on cell migration that increased with exposure to more concentrated nicotine"}]}, {"molecule": "OO", "note": "[Formulation H2O2, hydrogen peroxide]", "values": [{"measurement": "viable cells (MTS) after H2O2", "setting": "[4]", "value": "dose-dependent decrease of viable cells"}, {"measurement": "viable cells (MTS) after H2O2", "setting": "[5]", "value": "dose-dependent decrease of viable cells"}]}, {"molecule": "ethyl alcohol [Ethanol]", "values": [{"measurement": "cell viability (MTS) after ethanol", "setting": "[4]", "value": "dose dependent effect on cell viability"}, {"measurement": "cell viability (MTS) after ethanol", "setting": "[5]", "value": "dose dependent effect on cell viability"}]}]}
